{"source": "patent US9358226B2", "about": "“Triarylmethane analogs and their use in treating cancers” (Emory University, priority 2007, dated 2016)", "key": {"[1]": {"system": "P. falciparum Dd2 (Multidrug Resistant)", "test": "Malaria model, multidrug resistant P. falciparum", "type": "cell-based", "settings": "Plasmodium falciparum, DD2; read-out: IC50 (nM) vs P. falciparum Dd2 (Multidrug Resistant)", "experimental": "(§1) The compounds were tested in a malaria model using both chloroquine sensitive and multidrug resistant P. falciparum. The malaria model was the same as published in JAC Advance Access published online on Jul. 30, 2008, Journal of Antimicrobial Chemotherapy, doi:10.1093/jac/dkn315, the contents of which are hereby incorporated by reference, and the data is summarized in the table below.\n(§2) Briefly, the assay involves exposing both chloroquine sensitive and multidrug resistant P. falciparum to the compounds. After one hour of exposure to the highest concentration of the compound, followed by removal of the compound, the growth of all stages of P. falciparum was observed. The reduction in the growth stages was then compared with untreated control parasites. […] The presence of strong inhibition (defined herein as 10% growth) of all parasite stages was evaluated when the parasites were exposed to various concentrations of various compounds."}, "[2]": {"system": "bloodstream form of T. brucei", "test": "Bloodstream form of T. brucei, live cells, overnight treatment", "type": "cell-based", "experimental": "These and other compounds were tested on live cells.\nThe experiment was conducted with one million cells of the bloodstream form of T. brucei. After over night treatment with different compounds (at concentrations of 50 and 100 μmolar), cells were counted and plotted with controls."}, "[3]": {"system": "ang-2 mRNA", "test": "Quantitative reverse transcription-PCR for ang-2 in bEnd.3 cells", "type": "cell-based, murine", "settings": "6.5 hours", "experimental": "bEnd.3 cells were seeded equally into six T-75 flasks and 24 hours later were treated with 0, 1, 5, 10, 15, and 20 μM concentrations of gentian violet (Sigma-Aldrich, no. G2039) in ethanol for 6.5 hours. RNA was extracted and purified using TRI reagent (Sigma-Aldrich, T9424) and measured using spectrophotometer (Perkin-Elmer UV/VIS, Wellesley, Mass.). RNA (1 μg) was used for DNase Amplification (Invitrogen, no. 18068-015, Carlsbad, Calif.) followed by first-strand synthesis for reverse transcription-PCR (Invitrogen SuperScript, no. 12371-019). 96-well Optical Reaction Plate (ABI PRISM, no. 128, Applied Biosystems, Foster City, Calif.) was used for the reverse transcription-PCR reaction. A measure of 2.5 μl of template, which had been diluted 1:10 in crosslinked water, was used in each well and the experiment was performed in triplicate. Ang pt2 (Applied Biosystems, Taqman Gene Expression Assay, Mm00545822_ml) and 18S (Applied Biosystems Taqman Gene Expression Assay, Hs99999901_sl) primers were used along with crosslinked molecular grade water (Cellgro, Mediatech, Inc., Herndon, Va.) and master mix (Applied Biosystems TaqMan Fast Universal PCR Master Mix (2^x)). The reaction was run on the 7900 Applied Biosystems Reader for Absolute Quantification for 96-well plates. C values were analyzed by ΔΔCt method, and the standard error of the mean was calculated (FIG. 3b). The same protocol was used for treatment with brilliant green (Sigma, no. B6756), except that the concentrations used were 0, 0.1, 0.25, 0.5, and 0.75 μM (FIG. 3a)."}, "[4]": {"target": "T1, Nox2 (Homo sapiens, UniProt P04839)", "T1 construct": "expressed in transfected cells; host or cells: COS-phox cells", "T1 sequence (P04839 2-570 limits assumed)": "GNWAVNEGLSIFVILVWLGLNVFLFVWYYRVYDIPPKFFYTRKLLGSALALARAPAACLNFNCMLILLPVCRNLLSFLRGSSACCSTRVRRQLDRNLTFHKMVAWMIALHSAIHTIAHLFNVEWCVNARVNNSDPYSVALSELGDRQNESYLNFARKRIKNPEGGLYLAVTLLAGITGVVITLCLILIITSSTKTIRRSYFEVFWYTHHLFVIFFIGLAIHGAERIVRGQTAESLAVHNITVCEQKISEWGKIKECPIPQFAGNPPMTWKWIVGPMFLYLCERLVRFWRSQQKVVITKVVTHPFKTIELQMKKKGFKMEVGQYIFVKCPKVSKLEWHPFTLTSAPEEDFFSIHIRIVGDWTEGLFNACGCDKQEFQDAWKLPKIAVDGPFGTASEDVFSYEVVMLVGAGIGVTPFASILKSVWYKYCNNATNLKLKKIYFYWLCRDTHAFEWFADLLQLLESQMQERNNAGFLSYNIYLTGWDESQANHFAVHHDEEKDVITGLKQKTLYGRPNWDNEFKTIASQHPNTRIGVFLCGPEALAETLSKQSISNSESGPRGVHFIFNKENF", "T1 sequence (P13498 2-195 partner limits assumed)": "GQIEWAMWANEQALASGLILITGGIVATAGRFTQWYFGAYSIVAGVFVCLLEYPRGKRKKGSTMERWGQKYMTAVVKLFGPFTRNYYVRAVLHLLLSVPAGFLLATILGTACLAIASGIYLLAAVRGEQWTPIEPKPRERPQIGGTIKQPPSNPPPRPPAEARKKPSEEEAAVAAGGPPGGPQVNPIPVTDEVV", "test": "H2O2 production, homovanillic acid assay, Cos-phox cells", "type": "cell-based", "settings": "phorbol 12-myristate 13-acetate stimulated, 1 hour 37° C.", "experimental": "After 1 hour incubation at 37° C., the reaction was stopped and H2O2 production was measured using the homovanillic acid assay. The ability of these drugs to inhibit production of H2O2 is shown as a percentage relative to the untreated control (100%). […] Optimal Nox2 activity requires phorbol 12-myristate 13-acetate stimulation whereas Nox4 activity is constitutive.\nH2O2 release was measured using the homovanillic acid assay as described previously (Martyn, 2006). Briefly, 1.5-1.75×10^5 cells/well of a 12-well plate were seeded. The following day, cells were washed once with Hank's balanced salt solution and then preincubated for 15 minutes with either gentian violet (10-20 nM) or brilliant green (0.5-1.0 μM) in 1 ml of media. The cells were then washed once with Hank's balanced salt solution. Gentian violet or brilliant green was added at the same concentrations as in pretreatment to 0.5 ml of homovanillic acid assay solution (100 μM homovanillic acid assay, 4 U/ml horseradish peroxidase in Hank's balanced salt solution with Ca^2+ and Mg^2+) and incubated with the cells for 1 hour at 37° C. Cos-phox cells were additionally stimulated with 0.4 μg/ml phorbol 12-myristate 13-acetate. […] Fluorescence was read on a BioTek Synergy HT (BioTek Instruments Inc., Winooski, Vermont, […].) with an excitation of 320 nm and emission of 440 nm."}, "[5]": {"system": "P. falciparum D6 (Chloroquine Sensitive)", "test": "Malaria model, chloroquine sensitive P. falciparum", "type": "cell-based", "settings": "Plasmodium falciparum, D6; read-out: IC50 (nM) vs P. falciparum D6 (Chloroquine Sensitive)", "experimental": "as §1, §2"}}}
{"compound": "CN(C)c1ccc(C(=C2C=CC(=[N+](C)C)C=C2)c2ccc(N(C)C)cc2)cc1", "note": "[Gentian Violet (GV), hexamethyl pararosaniline chloride]", "values": [{"measurement": "IC50", "setting": "[1]", "value": 0.44, "unit": "nM"}, {"measurement": "IC50", "setting": "[2]; Trypanosoma brucei, bloodstream form of T. brucei", "value": "< 20", "unit": "nM"}, {"measurement": "cell survival after over night treatment", "setting": "[2]; one million cells, 50 and 100 μmolar", "value": "All cells died"}, {"measurement": "ang2 expression compared to control", "setting": "[3]; 1 and 5 μM", "value": "increased"}, {"measurement": "inhibition of ang-2 mRNA", "setting": "[3]; higher concentrations (above 5 μM, up to 20 μM)", "value": "70-90%"}, {"measurement": "inhibition of Nox2 activity (H2O2 production)", "setting": "[4]", "value": "inhibited"}, {"measurement": "IC50", "setting": "[5]", "value": 12.1, "unit": "nM"}]}
